Publication PMC9911388, “Secondary metabolic profiling of Serratia marcescens NP10 reveals new stephensiolides and glucosamine derivatives with bacterial membrane activity” (Scientific Reports, 2023)

How the values were obtained:
S. aureus RN4220 [1] = test: Membrane depolarisation assay: DiSC3(5); format: cell-based, Staphylococcus aureus; details: for Time to membrane depolarisation / Time to two-fold increase in DiSC3(5) fluorescent signal: at MIC; for Time to membrane depolarisation: DiSC3(5) assay; for Time to two-fold increase in DiSC3(5) fluorescent signal: from the initial reading at 120 s; for DiSC3(5) fluorescence (membrane depolarisation): ½MIC, MIC and two-fold MIC, DiSC3(5) 0.4 µM, read over 12 min
Description: To gain insight into whether stephensiolides and glucosamine derivatives cause membrane depolarisation of S. aureus, membrane potential was assessed by monitoring the release of the voltage-sensitive dye 3,3′-dipropylthiadicarbocyanine iodide [DiSC3(5)][25],[26].
The membrane depolarisation capabilities (ability to disrupt membrane potential) of GluA, GluC, StpK and StpU against S. aureus RN4220 was determined using the voltage-sensitive fluorescent probe, 3,3'-dipropylthiadicarbocyanine iodide [DiSC3(5)][25],[39]. Due to the cationic charge and hydrophobic nature of DiSC3(5), the fluorescent dye can penetrate and accumulate in lipid bilayers until Nernstian equilibrium is reached, resulting in the quenching of the fluorescent signal. Once depolarisation occurs (i.e., changes in ion permeability and dissipating transmembrane potential), the dye is rapidly released into the medium and subsequently results in the dequenching of the fluorescent signal. Briefly, black 96 well plates were prepared with the selected four compounds at two-fold MIC, MIC and ½MIC as described in the “Resazurin Broth Microdilution Assay” section. The S. aureus RN4220 strain was prepared in CA-MHB and grown to mid-log phase to obtain an OD600 of 0.5–0.6. Cells were harvested by centrifugation at 3000 rpm for 10 min and resuspended in HEPES buffer (5 mM, pH 7.4, containing 20 mM glucose; 100 mM KCl) to OD600 of 0.05. Thereafter, DiSC3(5) (stock concentration of 400 µM in 100% DMSO) was added to the cell suspension to a final concentration of 0.4 µM and cells were incubated in the dark at room temperature for 60 min. Cell suspensions (100 µL) were then dispensed into the wells of the 96 well plate containing the compounds. Sterile broth and the OD adjusted inoculum with DiSC3(5) were included as a non-fluorescent control, sterile broth with DiSC3(5) was included as a sterility control, and melittin was included as membrane depolarisation control. Fluorometric readings of the plate were conducted in 2 min intervals over 12 min (readings began 120 s after cells were added to the compounds) using a Tecan Spark at 622 nm excitation wavelength and 670 nm emission wavelength.

S. aureus RN4220 [2] = test: Membrane permeability assay: propidium iodide uptake; format: cell-based, Staphylococcus aureus; details: PI 10 µg/mL; for PI fluorescence (membrane permeabilisation): ½MIC and MIC, read over 60 min; for Time to two-fold increase in PI fluorescence from the initial reading: at MIC
Description: To gain insight into whether stephensiolides and glucosamine derivatives cause increased membrane permeability by forming lesions within the cell membrane of S. aureus, membrane permeability was assessed by monitoring the influx of propidium iodide (PI) and subsequent staining of nucleic acids within the cell, resulting in a fluorescent signal[23],[24]. Fluorescence was measured for 1 h at the MIC and ½MIC of compounds 12, 14, 22 and 26 (Fig. 5a and b).
The membrane permeability capabilities of GluA, GluC, StpK and StpU on S. aureus RN4220 was determined using propidium iodide (PI) (Sigma-Aldrich; St. Louis, MO, USA)[23]. This fluorescent dye can only enter bacterial cells through membrane lesions that are big enough to allow the large molecule (PI has a molecular mass of 668.087 g/mol) to pass through, thus providing an indication of changes in membrane permeability. Briefly, black Greiner CELLSTAR 96-well plates (Merck, Johannesburg, South Africa) were prepared with the selected four compounds at MIC and ½MIC and dried as described in the “Resazurin Broth Microdilution Assay” section. The S. aureus RN4220 strain was prepared in CA-MHB and grown to mid-log phase (OD600 of 0.5–0.6) and diluted to OD600 of 0.3. Propidium iodide (stock concentration of 1 mg/mL in water) was added to the cell suspension to a final concentration of 10 µg/mL and cells were incubated in the dark at room temperature for 10 min. Thereafter, 100 µL of OD adjusted PI cells in mid-log phase was dispensed into each well. Sterile broth and the OD adjusted inoculum with PI were included as a positive control, while sterile broth with PI was included as a negative control. Melittin served as a positive lytic control. Fluorometric readings of the plate were conducted in 2 min intervals over 60 min (readings began 120 s after cells were added to the compounds) using a Tecan Spark at 535 nm excitation wavelength and 617 nm emission wavelength.

S. aureus RN4220 [3] = test: Resazurin broth microdilution assay (resazurin vitality assay); format: cell-based, Staphylococcus aureus; details: for MIC: RP-HPLC purified fractions, MIC = concentration giving ≥ 90% inhibition of growth by fluorometric reading, range 9.8 to 625 µg/mL, 1 h at 37 °C, then resazurin 1.5 h, triplicate, independent duplicate experiments; for IC50: derived from sigmoidal dose-response curves (GraphPad Prism, nonlinear regression, best-fit)
Description: The RP-HPLC purified fractions were tested for antibacterial activity using a broth microdilution assay coupled with the metabolic dye, resazurin[20] against S. aureus RN4220. The principle of the assay was based on the rate of reduction of the resazurin dye to resorufin, with survival of the cell equated to an increased conversion of this dye, while a decreased rate of conversion indicates impairment of cellular metabolism and was thus equated to cell death. Briefly, the test strain was inoculated into 10 mL of cation adjusted-Mueller Hinton broth (Sigma-Aldrich) (CA-MHB containing […]) and incubated at 37 °C for 18 to 24 h. Following overnight incubation, the culture was diluted into the respective media and grown to mid-log phase to obtain an optical density (OD) at 0.3 (± 1.4 × 10^8 cells mL^-1) determined at 600 nm.
The RP-HPLC fractions were then diluted in MeCN to a concentration of […]. Fifty microlitres of each fraction was dispensed into the first row of the respective wells of a clear Greiner CELLSTAR® 96-well culture plate (Merck, Johannesburg, South Africa) containing 50 μL of analytical quality H2O, in triplicate. A microdilution was performed in the 96-well culture in 50 μL of sterile analytical quality H2O in each well and the plate was dried at 50 °C for 18 to 24 h to remove the solvent. Thereafter, 10 μL of target cells in mid-log phase at the adjusted OD was dispensed into each well, resulting in a final antimicrobial concentration range of each fraction from 9.8 to 625 µg/mL and incubated for 1 h at 37 °C. After 1 h incubation, 90 μL of phosphate buffered saline (PBS) was added to each well, followed by 10 μL of resazurin [prepared to a stock solution 0.3 mg/mL in PBS; Sigma-Aldrich (St Louis, MO, USA)]. The plate was then incubated at 37 °C for 1.5 h. Finally, fluorometric readings of the plate were conducted using a Tecan Spark 10 M Multimode Microplate Reader at 560 nm excitation wavelength and 590 nm emission wavelength. Sterile broth and the OD adjusted inoculum were included in the assay as a positive control, while sterile broth was included as a negative control. Tests were performed in triplicate, with independent duplicate experiments.
The percentage inhibition was calculated as described by van Rensburg et al.[20]. […] The MIC vs retention time was plotted using Graphpad Prism version 3.01 for Windows [GraphPad Software, San Diego, USA (www.graphpad.com)].

[4] = UPLC C18 retention time used as measure of hydrophobicity; format: physicochemical; details: chromatographic; UPLC-MS of NP10 crude extract; C18 Acquity UPLC HSS T3 1.8 μm, 2.1 × 150 mm; H2O/MeCN with 0.1% formic acid; 40 to 95% B from 0.5 to 15 min; 0.300 mL/min
Description: The pooled NP10 crude extract was analysed using UPLC-MS^E at the Liquid Chromatography Mass Spectrometry (LCMS) unit at the Central Analytical Facility (CAF, SU) as outlined in Clements-Decker et al.[4]. Briefly, the UPLC-MS^E was conducted on a Waters Synapt G2 high resolution mass spectrometer linked to an Acquity UPLC™ (Waters Corporation, Milford, USA). Three microlitres (1.00 mg/mL) was separated on an UPLC C18 reverse-phase analytical column (Acquity UPLC® HSS T3, 1.8 μm particle size, 2.1 × 150 mm, Waters Corporation, Dublin, Ireland). The UPLC was conducted with analytical quality H2O containing 0.1% (v/v) formic acid as solution A and MeCN containing 0.1% (v/v) formic acid as solution B at a flow rate of 0.300 mL/min as follows: 60% A from 0 to 0.5 min for loading, linear gradient from 40 to 95% (B) from 0.5 to 15 min and 95 to 40% (B) from 15 to 18 min. The positive mode ESI conditions included: 2.5 kV capillary voltage, 15 V cone voltage, 120 °C source temperature, desolvation temperature of 275 °C, 50 L/h cone gas flow, 650 L/h desolvation gas flow, and m/z range of 200 to 2000 in centroid mode.

Substance	MIC (S. aureus RN4220 [3]) [µg/mL]	Rt (retention time, hydrophobicity) [4] [min]	further results
melittin [reference compound]			Time to rapid depolarisation (control) (S. aureus RN4220 [1]; depolarisation control): ≤ 240 s; PI fluorescence (membrane permeabilisation) (S. aureus RN4220 [2]): expected increase in fluorescence signal
Stephensiolide U [Compound 12]	78	9.57	Time to membrane depolarisation (S. aureus RN4220 [1]): ≤ 8 min; Time to two-fold increase in DiSC3(5) fluorescent signal (S. aureus RN4220 [1]): 480 s; DiSC3(5) fluorescence (membrane depolarisation) (S. aureus RN4220 [1]): induced an increase in DiSC3(5) fluorescence at all concentrations tested; Time to two-fold increase in PI fluorescence from the initial reading (S. aureus RN4220 [2]): ≤ 28 min; PI fluorescence (membrane permeabilisation) (S. aureus RN4220 [2]): induced an increase in PI fluorescence over time; IC50 (S. aureus RN4220 [3]): 53 µg/mL
Stephensiolide K [Compound 14]	39	10.37	Time to membrane depolarisation (S. aureus RN4220 [1]): ≤ 12 min; Time to two-fold increase in DiSC3(5) fluorescent signal (S. aureus RN4220 [1]): 720 s; DiSC3(5) fluorescence (membrane depolarisation) (S. aureus RN4220 [1]): induced an increase in DiSC3(5) fluorescence at all concentrations tested; Time to two-fold increase in PI fluorescence from the initial reading (S. aureus RN4220 [2]): ≤ 36 min; PI fluorescence (membrane permeabilisation) (S. aureus RN4220 [2]): induced an increase in PI fluorescence over time; IC50 (S. aureus RN4220 [3]): 25 µg/mL
Stephensiolide W [Compound 15]		10.31	
Stephensiolide L [Compound 1]		5.46	
Stephensiolide N [Compound 3]	≥ 300	7.17	
Stephensiolide S [Compound 10]		8.01	
Stephensiolide V [Compound 13]		9.74	
Stephensiolide Y [Compound 17]		11.88	
Stephensiolide T [Compound 11]	≥ 300	8.92	MIC (S. aureus RN4220 [3]; listed as StpT): no activity observed
Stephensiolide O [Compound 6]		6.28	
Stephensiolide M [Compound 2]		6.45	
Stephensiolide Q [Compound 8]	≥ 300	8.09	
Stephensiolide X [Compound 16]		10.87	
Stephensiolide P [Compound 7]		7.00	
Stephensiolide R [Compound 9]	≥ 300	8.79	
